The OPERA property sets (Mansouri et al. 2018)

Conditions: for log10 BCF / log10 biotransformation half-life (days): fish

Row | SMILES | boiling point | melting point | other results
1 | CCc1cccc(CC)c1 | 181 °C | -83.9 °C | log10 biodegradation half-life (days): 0.845; log10 vapour pressure (mmHg): 0.0531; ready biodegradability: not readily biodegradable; log10 BCF: 2.73; log10 biotransformation half-life (days): 0.09
2 | c1ccc2c(c1)c(Cc1cn(CN3CCCCC3)c3ccccc13)cn2CN1CCCCC1 |  | 138 °C | 
3 | Cc1cccc(Cl)c1 | 162 °C | -47.8 °C | log10 vapour pressure (mmHg): 0.565
4 | FCC(F)(F)C(F)F | 26 °C | -82 °C | log10 vapour pressure (mmHg): 2.88
5 | Nc1cc([N+](=O)[O-])ccc1Cl |  | 121 °C | 
6 | C=C(C)CCC(C)C | 112 °C |  | 
7 | C=CC(=O)OCC(C)C | 132 °C | -61 °C | log10 vapour pressure (mmHg): 0.907
8 | C1=CCC(c2ccccc2)CC1 (configuration not stated) |  |  | ready biodegradability: readily biodegradable
9 | CCC(CC)[N+](=O)[O-] |  |  | ready biodegradability: readily biodegradable
10 | CCC[C@H]1CCCCN1 | 166 °C |  | 
11 | CCN(CC)c1cccc2ccccc12 | 285 °C |  | 
12 | CCCCCCCCCCCCCCCC#N | 333 °C | 31 °C | 
13 | CCCCCCCCCCCC(N)=O |  | 110 °C | 
14 | C=CCC1(C(C)C)C(=O)NC(=O)N(C)C1=O (configuration not stated) |  | 56.5 °C | 
15 | c1ccc2cc3ccccc3cc2c1 | 340 °C | 215 °C | log10 Henry constant (atm·m³/mol): -4.25; log10 Koa: 7.55; log10 Koc (L/kg): 4.31; log10 biodegradation half-life (days): 2.09; log10 vapour pressure (mmHg): -5.19; ready biodegradability: not readily biodegradable; log10 BCF: 3.26; log10 biotransformation half-life (days): 0.65
16 | N#C/C(=N\OCC1OCCO1)c1ccccc1 |  | 77.7 °C | log10 vapour pressure (mmHg): -5.4
17 | CCCCCCCCCCCCCCCCCCCO |  | 63.3 °C | 
18 | Cc1ccc2cc(C)ccc2c1 | 262 °C | 112 °C | log10 vapour pressure (mmHg): -2.37
19 | OCC1OC(O)C(O)C(O)C1O (configuration not stated) |  |  | ready biodegradability: readily biodegradable
20 | Cc1ccc2c(C)ccc(C(C)C)c2c1 | 294 °C |  | 
21 | Cc1cc(C)c(O)c(C(=O)CC2CC(=O)NC(=O)C2)c1 |  | 201 °C | 

Row | SMILES | boiling point | melting point | other results
22 | CCC(=O)OCC(C)C | 137 °C | -71.4 °C | log10 vapour pressure (mmHg): 0.811
23 | O=C(O)CCC(=O)C(=O)O |  | 116 °C | 
24 | O=c1c2cc(F)ccc2nc(-n2cncn2)n1-c1ccc(Cl)cc1Cl |  | 192 °C | log10 Henry constant (atm·m³/mol): -10.7; log10 vapour pressure (mmHg): -10.3
25 | Cc1ccc(Cl)c([N+](=O)[O-])c1 | 261 °C | 7 °C | 
26 | CCOC(=O)c1cccc(Cl)c1 | 243 °C |  | 
27 | O=Cc1ccc(O)c(O)c1O |  | 160 °C | 
28 | CN1CCN(CCCN2c3ccccc3Sc3ccc(C(F)(F)F)cc32)CC1.Cl.Cl |  | 240 °C | 
29 | NS(=O)(=O)c1cc(-c2nnn[nH]2)c(NCc2cccs2)cc1Cl |  | 220 °C | 
30 | CCCCCC1=CCCC1 | 179 °C | -83 °C | 
31 | CC(=O)NCc1ccccc1 |  | 61 °C | ready biodegradability: readily biodegradable
32 | Cl.c1ccc(CC2=NCCN2)cc1 |  | 175 °C | 
33 | CCCOB(OCCC)OCCC | 180 °C |  | 
34 | O=C(Nc1ccc(Cl)cc1)Nc1ccc(Cl)c(Cl)c1 |  | 256 °C | ready biodegradability: not readily biodegradable
35 | Cn1sc(Cl)cc1=O |  |  | ready biodegradability: not readily biodegradable
36 | COC(=O)c1cccc(I)c1 | 277 °C | 54.5 °C | 
37 | CC1=C(/C=C/C(C)=C/C=C/C(C)=C/C=C/C=C(C)/C=C/C=C(C)/C=C/C2=C(C)CCCC2(C)C)C(C)(C)CCC1 |  | 183 °C | 
38 | CCCCCCCCCC(=O)Cl |  | -34.5 °C | 
39 | FC1CCCCC1 | 101 °C | 13 °C | 
40 | Oc1ccc(Nc2ccccc2)cc1 | 330 °C | 73 °C | 
41 | CCCCOc1ccccc1 | 210 °C | -19.4 °C | log10 vapour pressure (mmHg): -0.529
42 | CC(C)OC(=O)C(C)(C)Oc1ccc(C(=O)c2ccc(Cl)cc2)cc1 |  | 80.5 °C | 

Row | SMILES | boiling point | melting point | other results
43 | Clc1ccc(Cl)c(-c2ccccc2Cl)c1 |  |  | log10 Henry constant (atm·m³/mol): -3.6; log10 Koa: 7.6; log10 Koc (L/kg): 4.4; log10 vapour pressure (mmHg): -2.98; log10 BCF: 4.23; log10 biotransformation half-life (days): 1.87
44 | C=CC(=O)OCC(CC)CC |  | -70 °C | log10 vapour pressure (mmHg): 0.23
45 | CCO[Si](C)(OCC)OCC | 142 °C |  | 
46 | CC(C)c1ccc(C=O)cc1 | 236 °C |  | ready biodegradability: readily biodegradable
47 | C[C@]12COC(=O)C[C@@H]1CC[C@@H]1[C@@H]2CC[C@@]2(C)[C@H]1CC[C@]2(C)O |  | 236 °C | 
48 | CC(C)=CCC[C@@H](C)CC=O | 207 °C |  | 
49 | N#CCC#N | 218 °C | 32 °C | log10 vapour pressure (mmHg): -0.698
50 | Cc1coc2ccccc2c1=O |  | 68 °C | 
51 | CCCCCCCC/C=C\CCCCCCCCCCCC(N)=O |  | 77.5 °C | ready biodegradability: readily biodegradable
52 | CC(=O)O[C@]1(C(C)=O)CC[C@H]2[C@@H]3CCC4=CC(=O)CC[C@]4(C)[C@@]3(F)[C@@H](O)C[C@@]21C |  | 268 °C | 
53 | Brc1cc2c(cc1Br)Oc1ccccc1O2 |  | 158 °C | log10 vapour pressure (mmHg): -5.92
54 | Cc1cc(Cl)c(O)c(Cl)c1 | 231 °C | 39 °C | 
55 | CCC(C)(CC)CC | 118 °C | -90.9 °C | log10 vapour pressure (mmHg): 1.36
56 | CCCCCC(=O)OCCCC | 208 °C | -64.3 °C | 
57 | C=Cc1ccccc1OC | 197 °C | 29 °C | 
58 | CCCC(C)(C)CC(C)C | 151 °C |  | 
59 | CO[C@H]1[C@H](O)[C@H](O[C@H]2CC[C@@]3(C=O)[C@H](CC[C@@H]4[C@@H]3CC[C@]3(C)[C@@H](C5=CC(=O)OC5)CC[C@]43O)C2)O[C@@H](C)[C@@H]1O |  | 162 °C | 
60 | O=C1c2ccccc2C(=O)c2c(O)cccc21 |  | 194 °C | log10 vapour pressure (mmHg): -6.68; ready biodegradability: not readily biodegradable; log10 BCF: 2.25
61 | CC1(C)C2CC3C(C2)C31C | 152 °C | 67.5 °C | 
62 | CCCCCCCCCCCCCC[N+](C)(C)Cc1ccccc1 |  |  | ready biodegradability: not readily biodegradable
63 | CSC | 37.3 °C | -98.3 °C | log10 Henry constant (atm·m³/mol): -2.79; log10 vapour pressure (mmHg): 2.7

Row | SMILES | boiling point | melting point | other results
64 | O=C(O)COc1c(F)c(F)c(F)c(F)c1F |  | 109 °C | 
65 | CC(C)C(C)O (configuration not stated) | 112 °C |  | log10 vapour pressure (mmHg): 0.961
66 | CC(=O)OCCC(C)C | 142 °C | -78.5 °C | log10 Henry constant (atm·m³/mol): -3.23; log10 Koa: 3.94; log10 vapour pressure (mmHg): 0.748
67 | C[C@@H](N)c1ccccc1 |  |  | ready biodegradability: not readily biodegradable
68 | Cc1ccc(C#N)c(=O)[nH]1 |  |  | ready biodegradability: readily biodegradable
69 | Nc1cccc2c(O)nnc(O)c12 |  | 330 °C | 
70 | COc1cc(Cc2cnc(N)nc2N)cc(OC)c1Br |  | 226 °C | 
71 | CCCC(O)C(C)(C)C (configuration not stated) | 156 °C |  | 
72 | Oc1c(Br)c(Br)c(Br)c(Br)c1Br |  | 230 °C | ready biodegradability: not readily biodegradable
73 | Clc1ccc2ccc(Cl)c(Cl)c2c1Cl |  |  | log10 Koa: 8.65
74 | Cc1ccc(Cc2ccc(C)cc2)cc1 | 286 °C | 28 °C | 
75 | O=C1c2ccccc2C(=O)N1Cc1ccccc1 |  | 116 °C | 
76 | CCOC(=O)CCC(C)CC (configuration not stated) | 180 °C |  | 
77 | C=CCCCBr | 126 °C |  | 
78 | Clc1cccc(C(Cl)(Cl)Cl)n1 |  | 63 °C | log10 Koc (L/kg): 2.62; log10 vapour pressure (mmHg): -2.32
79 | CCCCCC1OC1CC1OC1CCCCCCCC(=O)OCC(COC(=O)CCCCCCCC1OC1CC1OC1CCCCC)OC(=O)CCCCCCCC1OC1CC1OC1CCCCC (configuration not stated) |  |  | ready biodegradability: readily biodegradable
80 | O=[N+]([O-])c1ccc(Sc2ccccc2)cc1 |  | 56 °C | 
81 | CC(=O)c1ccc(-n2ccnc2)cc1 |  |  | ready biodegradability: readily biodegradable
82 | CCOP(=S)(OCC)SCC(=O)NC(C)C |  | 28.5 °C | 
